Results from patent EP0831769B2, “NOVEL USES FOR THYROID HORMONES OR THYROID HORMONE-LIKE COMPOUNDS” (Lavin, Dr., Thomas N., priority 1995, dated 1996).
Where “and” joins values, the source holds several entries; their conditions need not be identical. Equal values may be shown once. Entries after “also recorded” stand apart in the source; their conditions may differ. Read-outs that look alike come from different tables or passages of the source.

Experiments:
[1] = target: T1, human thyroid receptor (Homo sapiens, UniProt P10828); assay: Thyroid hormone receptor binding affinity
T1 sequence (P10828 1-461): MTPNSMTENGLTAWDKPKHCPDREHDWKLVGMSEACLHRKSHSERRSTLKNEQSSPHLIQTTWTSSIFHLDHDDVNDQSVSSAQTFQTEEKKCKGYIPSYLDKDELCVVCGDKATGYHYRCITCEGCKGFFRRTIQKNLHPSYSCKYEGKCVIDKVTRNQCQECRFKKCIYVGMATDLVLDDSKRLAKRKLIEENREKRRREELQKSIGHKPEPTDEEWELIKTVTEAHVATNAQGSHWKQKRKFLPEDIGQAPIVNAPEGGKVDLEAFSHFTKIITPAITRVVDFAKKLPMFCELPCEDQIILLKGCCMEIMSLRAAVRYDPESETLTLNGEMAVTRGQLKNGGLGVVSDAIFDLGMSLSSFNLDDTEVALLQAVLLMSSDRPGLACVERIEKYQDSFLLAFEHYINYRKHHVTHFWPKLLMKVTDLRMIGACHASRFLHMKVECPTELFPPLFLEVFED
Text: Partial agonist/antagonists also may exist. (Suitable ligands may be agonists or antagonists).

[2] = test system: Skin-2 model ZK1301; assay: Skin-2 model: mRNA expression by RT-PCR, semi-quantitative;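 further: Three-dimensional human skin equivalent of dermal fibroblasts and foreskin keratinocytes at an air-liquid interface, exposed for 10 or 48 h, mRNA measured in total RNA by RT-PCR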
Text: A novel synthetic human skin, Skin- 2 model ZK1301 (Advanced Tissue Sciences, La Jolla (USA)) is composed of a three dimensional human skin culture consisting of a dermal fibroblast layer and human foreskin keratinocytes which can be grown with an air-keratinocyte interface to promote normal differentiation and cornification of the model skin.
The following were components of the Skin^2 kits: 9x9 mm skin tissues on agarose, 6-well plates, and Millicell inserts. Two media based on Dulbecco's Modification of Eagle's medium were also included: Maintenance medium (containing 5% fetal calf serum) and serum-free assay medium.
All-trans-retinoic acid, 1,25-(OH)2-vitamin D3, and betamethasone were purchased from Sigma Chemicals (Stockholm). Upon arrival the skin tissues were placed dermal-side down into the center of a Millicell in a 6-well plate well containing prewarmed maintenance medium. The tissues were incubated at 37°C in an atmosphere of 5% CO2 in air. After 24 h the maintenance medium was exchanged.
Following another 24 h the Maintenance medium was removed and replaced by Serum- free assay medium containing 5% "stripped" fetal calf serum. Substances were added within 1 h after medium exchange and the tissues were incubated for 10 or 48 h in the presence of the substances. Medium and substances were changed after 24 h incubation. The cells were grown at an air - liquid interface. At the end of the 48 h-incubation period two tissues were pooled together in a sterile plastic centrifugation tube. The tissue was snap frozen on solid ice (-60°C) and stored at -70°C until used. Duplicate samples were included for each treatment.
Total RNA was extracted from Skin^2 -samples and human skin biopsies using Ultraspec II (Biotecx Laboratories, Inc., Houston, TX). One ml of Ultraspec II was added to each sample which were homogenized by using a Polytron for 2x20 sec at setting 6. Total RNA was extracted according to the protocol supplied by the manufacturer. […] After incubation at 37°C for 60 min, the reaction was stopped by heating at 75°C for 10 min and the mixture stored at -70°C until cDNA amplification was performed.
The tubes were placed in a Thermal cycler (Perkin-Elmer) programmed as follows: (a) 90°C for 90 s; (b) variable number of cycles (see Table 1) of the following sequential steps: 60 s at 94°C, 75 s at annealing temp (see Table 1), 90 s at 72°C; and (c) 7 min at 72°C. […] Gels were recorded by videoprints. The amount of product was estimated on the videopoint or directly on the gel. The amount of transcripts in each lane were compared in relation to two control samples run in parallel.

[3] = test system: Hairless mice SKH-1; assay: Photodamaged skin: UV-B irradiated hairless mice treated with cream for 16 weeks; format: in vivo; settings: cream for 16 weeks after 12 weeks of UV-B irradiation, compared to untreated irradiated animals
Experimental: Hairless mice SKH-1 are UV-B irradiated according to the schedule of (22). After 12 weeks of irradiation, significant wrinkling results. The mice are treated with the thyroid hormone Triac-containing cream for a period of 16 weeks after irradiation. The degree of wrinkling appearing on the irradiated mice is compared to untreated, irradiated animals to which the appropriate pharmaceutical base is not applied.

[4] = test system: phosphodiesterase; settings: in vitro, isolated adipocytes; FR2354101; cited from earlier work
[5] = Table 3, Skin-2 model, 1 µM, transcriptional response score
[6] = Table 3, Skin-2 model, 10uM, transcriptional response score
[7] = Table 3, Skin-2 model, 10uM, transcriptional response score, listed as L-T-I
[8] = Skin-2 model, 1 µM, semi quantitative mRNA change vs control
[9] = Skin-2 model, 50 nM, semi quantitative mRNA change vs control
[10] = Table 3, Skin-2 model, 50nM, transcriptional response score

Structure (SMILES)	Ki [1] [nM]	col a-1 [2, 5]	col a-3 [2, 5]	gf(pdgf-L) [2, 5]	k1 [2, 5]	k10 [2, 5]	k16 [2, 5]	scce [2, 5]	trans gk [2, 5]	IL-6 [2, 8]	col 1A-1 [2, 8]	col 3A-1 [2, 8]	crabp-II [2, 8]	k1 [2, 8]	k10 [2, 8]	k16 [2, 8]	k19 [2, 8]	tgfbeta-2 [2, 8]	trans gk [2, 8]	also measured
O=C(O)c1cc(I)c(Oc2ccc(O)c(I)c2)c(I)c1 [compound number 2]	0.1	2	1	1	-1	0	0	0.5	0.5	–	–	–	–	–	–	–	–	–	–	–
NC(Cc1cc(Br)c(Oc2ccc(O)c(Cc3ccc(=O)[nH]n3)c2)c(Br)c1)C(=O)O (stereo not shown) [compound number 5]	8	0	0	–	–	–	-0.5	–	–	–	–	–	–	–	–	–	–	–	–	relative selectivity of gene responses ([2]; Skin-2 model, 1 µM, epidermal differentiation genes versus collagen genes): relative selectively for keratin 1, tranglutaminase K and SCCE responses over collagen responses
N[C@@H](Cc1ccc(Oc2ccc(O)cc2)c(I)c1)C(=O)O [L-T-1, 3-idodo-L-Thronine]	20000	–	–	–	–	–	–	–	–	–	–	–	–	–	–	–	–	–	–	binding to the thyroid hormone receptor (in words) ([1]; b58: even at the tested ten micromolar concentration): no thyroid hormone receptor binding activity; also recorded: binds poorly; col a-1 [2, 6]: 0.5; col a-3 [2, 6]: 0.5; gf(pdgf-L) [2, 6]: 1; k1 [2, 6]: 0; k10 [2, 6]: 0; k16 [2, 6]: 0; scce [2, 6]: 1; trans gk [2, 6]: 1; col a-1 [2, 7]: only modest effects; col a-3 [2, 7]: only modest effects; k1 [2, 7]: no inhibition; k10 [2, 7]: no inhibition; scce [2, 7]: positive effect; trans gk [2, 7]: positive effect
Cc1cc(C[C@H](N)C(=O)O)cc(C)c1Oc1ccc(O)c(C(C)C)c1 [compound number 6, 1-3,5-Dimethyl-3'-isopropylthyronine]	–	1	0.5	1	-2	-1	0	-1	-2	–	–	–	–	–	–	–	–	–	–	Ki ([1]; Table 3, binding affinity to the human thyroid receptor, read-out: Ki): 75 nM
N[C@@H](Cc1cc(I)c(Oc2ccc(O)c(I)c2)c(I)c1)C(=O)O [compound number 1, Trilodothyronine]	–	1	2	1	-2	-0.5	0	0.5	0	–	–	–	–	–	–	–	–	–	–	–
C=C1C(=CC=C2CCCC3(C)C2CCC3C(C)CCCC(C)(C)O)CC(O)CC1O (stereo not shown) [vit D, 1,25-(OH)2-vitamin D3]	–	–	–	–	–	–	–	–	–	-1	2	2	-1	0	-1	0	0	2	-1	ctgf(pdgf-L) [2, 8]: 0; scce [2, 8]: 0
CC1=C(/C=C/C(C)=C/C=C/C(C)=C/C(=O)O)C(C)(C)CCC1 [RA, All-trans-retinoic acid]	–	–	–	–	–	–	–	–	–	-1	2	1	1	-3	-1	-0.5	-1	2	-3	ctgf(pdgf-L) [2, 8]: 1
Cc1cc(NC(=O)C(=O)O)cc(C)c1Oc1ccc(O)c(C(C)C)c1 [compound number 7, N-[3,5-Dimethy-4-(4'-hydroxy-3'-isopropylphenoxy)-phenyl]oxamic Acid]	0.1	1	1	1	-1	1	0.5	-1	-1	–	–	–	–	–	–	–	–	–	–	–
N[C@@H](Cc1cc(I)c(Oc2cc(I)c(O)c(I)c2)c(I)c1)C(=O)O [compound number 3, Thyroxine]	–	2	0.5	1	-2	-1	0	0	1	–	–	–	–	–	–	–	–	–	–	–
C[C@H]1C[C@H]2[C@@H]3CCC4=CC(=O)C=C[C@]4(C)[C@@]3(F)[C@@H](O)C[C@]2(C)[C@@]1(O)C(=O)CO [betameth, betamethasone]	–	–	–	–	–	–	–	–	–	-2	0.5	-0.5	-1	-3	-0.5	-1	-0.5	0	-1	ctgf(pdgf-L) [2, 8]: 1; scce [2, 8]: -1
O=C(O)Cc1cc(I)c(Oc2ccc(O)c(I)c2)c(I)c1 [Triac, tri-iodothyroacetic acid]	–	1	1	2 and 1	-1	–	0	–	-0.5	-0.5	2	1	-1	-2	-2	-0.5	-1	2	-3	skin collagen [3]: increase; wrinkle pattern of the animals [3]: significant decrease; dose range at which phosphodiesterase inhibition and cyclic AMP increase occur [4]: approximately 10^-4 M; ctgf(pdgf-L) [2, 9]: 1; k16 [2, 9]: -1; k19 [2, 9]: -1; scce [2, 8]: -2; k1 [2, 10]: -2; k16 [2, 10]: 0
